Experimental data taken from US20220152067A1, “Cancer Immunotherapy Adjuvant” (lndustry-Academic Cooperation Foundation, Yonsei University, priority 2019, published 2022).

What was measured:
Type in all cases: in vivo, C57BL/6 male mice
[1] = test system: MC38 colorectal cancer cell line; experiment: Tumor size change in mice after MC38 colorectal cancer cell line injection and drug administration; details: subcutaneous MC-38 tumor, drug administration for 7 days; statistically proved by two-way ANOVA
Procedure: (§1) MC-38 colorectal cancer cells (5×10^5 cells) were injected subcutaneously into 7-week-old C57BL/6 male mice. Seven days after the colorectal cancer cells were injected, the average tumor volume of the subcutaneous MC-38 tumor was about 40 mm^3. The injection method of the mouse tumor as described above was equally applied to all four groups below. Afterwards, the experimental group was divided into the vehicle administration control group, SAC-1004 and anti-PD1 co-administration group, SAC-1004 single administration group, and anti-PD1 single administration group, and the experiment was performed.
(§2) Specifically, the administration was performed as follows. SAC-1004, a vascular leak inhibitor, was dissolved in DMSO in PBS, and 1 mg per kg of mouse body weight was administered daily by intravenous injection. Anti-PD1, an immune checkpoint inhibitor, was administered at the concentration of 200 ng/mouse by intraperitoneal injection 3 times a week along with 200 ng of rat igG2a. […]
(§3) In a total of 4 groups consisting of control group, SAC-1004 and anti-PD1 co-administration group, SAC-1004 single administration group, and anti-PD1 single administration group, the tumor size changes according to the drug administration for 7 days as described above in the experimental animal model were analyzed.

[2] = Spleen size and weight of mice after MC38 injection and drug administration; details: MC38 model, 7 days; not statistically significant by one-way ANOVA
Procedure: as §1, §2
as §3, with “spleen” for “tumor”, “of mice treated with” for “changes according to”, “drug” for “drug administration”, “was” for “were”

[3] = test system: MC38 colorectal cancer cell line; experiment: Tumor weight of mice after MC38 injection and drug administration; details: MC38 model, 7 days; statistically proved by one-way ANOVA
Procedure: as §1, §2
as §3, with “weight of mice treated with” for “size changes according to”, “drug” for “drug administration”, “was” for “were”

[4] = test system: VE-cadherin; experiment: Adherent junction expression in mouse tumor (IHC staining); details: drug administered for 14 days
Procedure: as §1
Specifically, the administration was performed as follows. SAC-1004, a vascular leak inhibitor, was dissolved in DMSO in PBS, and 1 mg per kg of mouse body weight was administered daily by intravenous injection. […]
In a total of 4 groups consisting of control group, SAC-1004 and anti-PD1 co-administration group, SAC-1004 single administration group, and anti-PD1 single administration group, the expression of adherent junction in the tumor of the mouse treated with the drug as described above in the experimental animal model was analyzed except that the drug was administered for 14 days by daily administration of SAC-1004 for 7 days and administration of anti-PD1 3 times a week. […]

COC(=O)CCC/C=C(\C)[C@H]1CCC2C3CC=C4C[C@@H](OC5C=C[C@H](OC(C)=O)[C@@H](COC(C)=O)O5)CC[C@]4(C)C3CC[C@@]21C (stereo partly shown) [SAC-1004]
tumor size [1]: reduced compared to that in the control group | spleen weight [2]: higher than that of the control group mice | tumor weight [3]: lower than that of the anti-PD1 single administration group mice | ratio of intratumoral VE-cadherin [4]: increased
